Assay results from US11903990B2, “Compositions and methods for treating and removing seborrheic keratoses” (priority 2017, dated 2024).

System: seborrheic keratoses (SKs)
Test: Formulary and performance observations on ingredients added to the SK treatment compositions
Format: in vivo, human
Settings: for performance on addition to the BWE composition: added antioxidant, with BWE; for improvement of the treatment of seborrheic keratosis: dietary antioxidant
From the text: A number of formulary and performance observations were made in the various aforementioned pilot and case studies as well as additional variants thereof not reported here. […] Additionally, the addition of keratolytic agents and emollients appeared to help keep the composition from drying and improved the penetration of the composition into the SK.

SMILES | performance on addition to the BWE composition | improvement of the treatment of seborrheic keratosis
Oc1ccc(C=Cc2cc(O)cc(O)c2)cc1 [resveratrol] | no visible improvement | not found to improve
CC(C)=CCC/C(C)=C/C=C/C(C)=C/C=C/C(C)=C/C=C/C=C(C)/C=C/C=C(C)/C=C/C=C(\C)CCC=C(C)C [lycopene] | no visible improvement | not found to improve
CC(=O)N[C@@H](CS)C(=O)O [N-acetyl cysteine] | no visible improvement | not found to improve
O=C(O)/C=C/c1ccc(O)c(O)c1 [caffeic acid] | no visible improvement | not found to improve
